Experimental findings from patent US8685974B2 (Bayer CropScience AG, priority 2009, dated 2014) are described below.

A short description of this series: physchem. Conditions: pH 2.7.

Where a name gives a salt, the structure may show the parent alone.

Turning to `CN(C)C=CC(=O)c1cc(Br)c(Br)s1` [1-(4,5-Dibromo-2-thienyl)-3-(dimethylamino)prop-2-en-1-one], the log p was determined as 2.68.

On to `CN(C)C=CC(=O)c1cc(Br)cs1` [1-(4-Bromo-2-thienyl)-3-(dimethylamino)prop-2-en-1-one], for which the log p was determined as 1.94.

`CN(C)C=CC(=O)c1cc(Cl)cs1` [1-(4-Chloro-2-thienyl)-3-(dimethylamino)prop-2-en-1-one] returned a log p of 1.86.

In turn, `CSc1nccc(CC(=O)c2ccc(Cl)s2)n1` [1-(5-Chloro-2-thienyl)-2-[2-(methylsulfanyl)pyrimidin-4-yl]ethanone] displayed a log p of 2.98.

Compound `O=C(Cc1ccnc(Cl)c1)c1ccc(Cl)s1` [1-(5-chloro-2-thienyl)-2-(2-chloropyridin-4-yl)ethanone] showed a log p of 2.94.

Consider `O=C(Cc1ccncc1)c1ccc(Cl)s1` [1-(5-chloro-2-thienyl)-2-(pyridin-4-yl)ethanone], for which the log p worked out at 1.17.

`CN(C)C=C(C(=O)c1ccc(Cl)s1)c1ccnc(Cl)c1` [1-(5-chloro-2-thienyl)-3-(dimethylamino)-2-(2-chloropyridin-4-yl)prop-2-en-1-one] yielded a log p of 2.58.

The compound `CN(C)C=C(C(=O)c1ccc(Cl)s1)c1ccncc1` [1-(5-chloro-2-thienyl)-3-(dimethylamino)-2-(pyridin-4-yl)prop-2-en-1-one] showed a log p of 1.07.

Regarding `CCn1ccc(-c2cccs2)n1` [1-Ethyl-3-(2-thienyl)-1H-pyrazole], the log p amounted to 2.14.

Regarding `CCn1ccc(-c2cc(C)cs2)n1` [1-Ethyl-3-(4-methyl-2-thienyl)-1H-pyrazole], the log p was 2.64.

For `CCn1cc(I)c(-c2cccs2)n1` [1-Ethyl-4-iodo-3-(2-thienyl)-1H-pyrazole], the log p came to 3.13.

`CCn1cc(I)c(-c2cc(C)cs2)n1` [1-Ethyl-4-iodo-3-(4-methyl-2-thienyl)-1H-pyrazole] displayed a log p of 3.7.

Take `CCn1nccc1-c1cccs1` [1-Ethyl-5-(2-thienyl)-1H-pyrazole]: the log p was 2.18.

Take `CCn1nccc1-c1cc(C)cs1` [1-Ethyl-5-(4-methyl-2-thienyl)-1H-pyrazole]: the log p was 2.68.

For `CC(C)n1ccc(-c2cccs2)n1` [1-Isopropyl-3-(2-thienyl)-1H-pyrazole], the log p stood at 2.66.

The compound `Cc1csc(-c2ccn(C(C)C)n2)c1` [1-Isopropyl-3-(4-methyl-2-thienyl)-1H-pyrazole] yielded a log p of 3.14.

`CC(C)n1nccc1-c1cccs1` [1-Isopropyl-5-(2-thienyl)-1H-pyrazole] gave a log p of 2.69.

`Cc1csc(-c2ccnn2C(C)C)c1` [1-Isopropyl-5-(4-methyl-2-thienyl)-1H-pyrazole]: the log p stood at 3.18.

Regarding `CCCc1cc(-c2sccc2C)nn1C` [1-Methyl-3-(3-methyl-2-thienyl)-5-propyl-1H-pyrazole], the log p amounted to 3.34.

Compound `Cc1csc(-c2ccn(C)n2)c1` [1-Methyl-3-(4-methyl-2-thienyl)-1H-pyrazole] returned a log p of 2.14.

The compound `CCCc1cc(-c2cccs2)n(C)n1` [1-Methyl-3-propyl-5-(2-thienyl)-1H-pyrazole] had a log p of 2.9.

In turn, `CCCc1cc(-c2sccc2C)n(C)n1` [1-Methyl-5-(3-methyl-2-thienyl)-3-propyl-1H-pyrazole] displayed a log p of 3.34.

The compound `Cc1csc(-c2ccnn2C)c1` [1-Methyl-5-(4-methyl-2-thienyl)-1H-pyrazole] had a log p of 2.26.

Take `CCCc1cc(-c2cccs2)nn1C` [1-Methyl-5-propyl-3-(2-thienyl)-1H-pyrazole]: the log p was found to be 2.9.

`CCCn1ccc(-c2cccs2)n1` [1-Propyl-3-(2-thienyl)-1H-pyrazole] registered a log p of 2.58.

`CCCn1nccc1-c1cccs1` [1-Propyl-5-(2-thienyl)-1H-pyrazole] registered a log p of 2.64.

`CCC(C)n1ccc(-c2cccs2)n1` (stereo not shown) [1-sec-Butyl-3-(2-thienyl)-1H-pyrazole] gave a log p of 3.1.

With `CCC(C)n1cc(I)c(-c2cc(Cl)cs2)n1` (stereo not shown) [1-sec-Butyl-3-(4-chloro-2-thienyl)-4-iodo-1H-pyrazole], the log p was determined as 5.01.

The compound `CCC(C)n1ccc(-c2cc(C)cs2)n1` (stereo not shown) [1-sec-Butyl-3-(4-methyl-2-thienyl)-1H-pyrazole] registered a log p of 3.63.

Take `CCC(C)n1cc(I)c(-c2cccs2)n1` (stereo not shown) [1-sec-Butyl-4-iodo-3-(2-thienyl)-1H-pyrazole]: the log p came to 4.12.

For `CCC(C)n1cc(I)c(-c2cc(C)cs2)n1` (stereo not shown) [1-sec-Butyl-4-iodo-3-(4-methyl-2-thienyl)-1H-pyrazole], the log p is 4.79.

Compound `CCC(C)n1ncc(I)c1-c1cccs1` (stereo not shown) [1-sec-Butyl-4-iodo-5-(2-thienyl)-1H-pyrazole] yielded a log p of 4.12.

Consider `CCC(C)n1nccc1-c1cccs1` (stereo not shown) [1-sec-Butyl-5-(2-thienyl)-1H-pyrazole], for which the log p was 2.97.

Compound `CCC(C)n1ncc(I)c1-c1cc(Cl)cs1` (stereo not shown) [1-sec-Butyl-5-(4-chloro-2-thienyl)-4-iodo-1H-pyrazole] returned a log p of 4.72.

As to `CCC(C)n1nccc1-c1cc(C)cs1` (stereo not shown) [1-sec-Butyl-5-(4-methyl-2-thienyl)-1H-pyrazole], the log p was determined as 3.65.

In the case of `CC(=O)c1ccc(-c2n[nH]cc2-c2ccncc2)s1` [1-{5-[4-(pyridin-4-yl)-1H-pyrazol-3-yl]-2-thienyl}ethanone hydrochloride], the log p was 0.62.

As to `O=C(Cc1ccnc(Cl)n1)c1ccc(Cl)s1` [2-(2-Chloropyrimidin-4-yl)-1-(5-chloro-2-thienyl)ethanone], the log p came to 2.6.

On to `CCC(C)n1cc(-c2ccnc(Br)c2)c(-c2ccc(Cl)s2)n1` (stereo not shown) [2-Bromo-4-[1-sec-butyl-3-(5-chloro-2-thienyl)-1H-pyrazol-4-yl]pyridine], for which the log p came to 5.03.

As to `CC(C)Cn1cc(-c2ccnc(Cl)c2)c(-c2ccc(Cl)s2)n1` [2-Chloro-4-[1-isobutyl-3-(5-chloro-2-thienyl)-1H-pyrazol-4-yl]pyridine], the log p was 4.85.

`CC(C)Cn1ncc(-c2ccnc(Cl)c2)c1-c1ccc(Cl)s1` [2-Chloro-4-[1-isobutyl-5-(5-chloro-2-thienyl)-1H-pyrazol-4-yl]pyridine] gave a log p of 4.62.

On to `CCC(C)n1cc(-c2ccnc(Cl)c2)c(-c2ccc(Cl)s2)n1` (stereo not shown) [2-Chloro-4-[1-sec-butyl-3-(5-chloro-2-thienyl)-1H-pyrazol-4-yl]pyridine], for which the log p turned out to be 4.9.

Take `Clc1cc(-c2c[nH]nc2-c2ccc(Cl)s2)ccn1` [2-Chloro-4-[3-(5-chloro-2-thienyl)-1H-pyrazol-4-yl]pyridine]: the log p was found to be 2.75.

Regarding `CCC(C)n1cc(-c2ccnc(C#N)c2)c(-c2ccc(Cl)s2)n1` (stereo not shown) [2-Cyano-4-[1-sec-butyl-3-(5-chloro-2-thienyl)-1H-pyrazol-4-yl]pyridine], the log p came out at 4.41.

In turn, `C#CCNc1cc(-c2cn(CC(C)C)nc2-c2ccc(Cl)s2)ccn1` [2-Propargylamino-4-[1-isobutyl-3-(5-chloro-2-thienyl)-1H-pyrazol-4-yl]pyridine] displayed a log p of 2.3.

On to `CC(C)n1ccc(-c2cc(Br)c(Br)s2)n1` [3-(4,5-Dibromo-2-thienyl)-1-isopropyl-1H-pyrazole], for which the log p came to 4.64.

The compound `Brc1cc(-c2cc[nH]n2)sc1Br` [3-(4,5-Dibromo-2-thienyl)-1H-pyrazole] showed a log p of 2.74.
